Assay results published in patent US12168019B1, “8-hydroxy quinoline derivatives for enhancing telomerase reverse transcriptase (TERT) expression” (Sierra Sciences, Inc., priority 2010, dated 2024).

Test system: human TERT expression (hTERT mRNA transcripts)
Assay: Quantitative real-time RT-PCR of hTERT mRNA transcripts in compound-treated cells; note: test concentration or dose not given here
Format: cell-based
Excerpt: Telomerase is a ribonucleoprotein complex composed of the catalytic protein subunit (human telomerase reverse transcriptase or hTERT) and the RNA template. hTERT expression level can be measured by PCR.
Quantitative Reverse Transcription PCR can be run according to procedures outlined in Yajima et al. (Yajima, T. et al. Quantitative Reverse Transcription-PCR Assay of the RNA Component of Human Telomerase Using the TaqMan Fluorogenic Detection System Clinical Chemistry, 44:12, 2441-2445, 1998).
The principle of real-time PCR was first described by Heid et al. (Heid C. A., Stevens J., Livak K. J., Williams P. M. Real time quantitative PCR. Genome Res., 6: 986-994, 1996). Briefly, amplification of the target sequence is monitored per PCR cycle by detecting the fluorescence signal emitted by an internal probe that is degraded by the 5′ nuclease activity of the Taq polymerase. The emission signal accumulates in each sample, and the Ct required to reach a given fluorescence threshold is determined (Ct stands for Cycle Threshold and is a measure of the number of PCR cycles that are required to amplify a target—thus, a lower Ct score means that there is more abundant hTERT mRNA). Thus, the C1 value of a sample inversely correlates to the quantity of the starting cDNA which correlates to the number of mRNA transcripts. Using the cDNA of known quantity, a standard curve can be generated and used to determine the starting amount of mRNA transcripts based on the […] of each sample.
Quantitative real-time PCR can be done on cDNA from test compound-treated and nontreated cells by use of a ABI Prism 7900 Sequence Detection System (PE Applied Biosystems, Foster City, CA) following the Assays-on-Demand protocol (PE Applied Biosystems, Foster City, CA). Quantitative data can be analyzed using the Sequence Detection System software version 2.1 (PE Applied Biosystems).
The following compounds were tested in assays designed to identify compounds that enhance human TERT expression. The compounds turned on human TERT expression in these assays.

Row | Structure (SMILES) | Average Number of hTERT Transcripts
1 | Oc1c(I)cc(Cl)c2cccnc12 [Compound 1021] | 60.68
2 | O=C(CCc1ccccc1)NC(c1ccc2c(c1)OCO2)c1ccc2cccnc2c1O (stereo not shown) [Compound 1065] | 24.47
3 | CC(C)C(=O)NC(c1ccc2c(c1)OCO2)c1cc([N+](=O)[O-])c2cccnc2c1O (stereo not shown) [Compound 1064] | 52.74
4 | Cc1cc(NC(c2ccccn2)c2ccc3cccnc3c2O)no1 (stereo not shown) [Compound 1104] | 19.27
5 | CCC(=O)NC(c1ccccc1OC)c1cc([N+](=O)[O-])c2cccnc2c1O (stereo not shown) [Compound 1051] | 45.24
6 | CCCCC(=O)NC(c1cccs1)c1cc([N+](=O)[O-])c2cccnc2c1O (stereo not shown) [Compound 1063] | 205.2
7 | CC(=O)NC(c1ccco1)c1cc([N+](=O)[O-])c2cccnc2c1O (stereo not shown) [Compound 1034] | 44.71
8 | COc1ccc(C(=O)NC(c2ccc(Cl)cc2)c2cc(Cl)c3cccnc3c2O)cc1 (stereo not shown) [Compound 1014] | 11.55
9 | Cc1ccnc(NC(c2cccc(Br)c2)c2ccc3ccc(C)nc3c2O)c1 (stereo not shown) [Compound 1083] | 18.44
10 | CCCCC(=O)NC(c1ccco1)c1cc([N+](=O)[O-])c2cccnc2c1O (stereo not shown) [Compound 1055] | 28.89
11 | CCCC(=O)NC(c1cccs1)c1cc([N+](=O)[O-])c2cccnc2c1O (stereo not shown) [Compound 1048] | 58.04
12 | CCC(=O)NC(c1ccc(OC)c(OC)c1)c1cc(Cl)c2cccnc2c1O (stereo not shown) [Compound 1032] | 39.96
13 | CCCOCc1cc(CN2CCN(C)CC2)c(O)c2ncccc12 [Compound 1101] | 24.8
14 | CC(=O)NC(c1ccc(C(C)C)cc1)c1cc(Cl)c2cccnc2c1O (stereo not shown) [Compound 1057] | 12.42
15 | COc1ccc(C(NC(=O)C(C)C)c2cc([N+](=O)[O-])c3cccnc3c2O)cc1OC (stereo not shown) [Compound 1112] | 58.99
16 | COc1ccc(C(=O)NC(c2ccco2)c2cc(Cl)c3cccnc3c2O)cc1 (stereo not shown) [Compound 1012] | 12.01
17 | Cc1ccc2ccc(C(Nc3ccccn3)c3ccccc3Br)c(O)c2n1 (stereo not shown) [Compound 1108] | 31.13
18 | CCCCC(=O)NC(c1ccc(OC)c(OC)c1)c1cc([N+](=O)[O-])c2cccnc2c1O (stereo not shown) [Compound 1053] | 47.54
19 | CCC(=O)NC(c1ccco1)c1cc(Cl)c2cccnc2c1O (stereo not shown) [Compound 1039] | 30.9
20 | CCCCC(=O)NC(c1cccs1)c1cc(Cl)c2cccnc2c1O (stereo not shown) [Compound 1067] | 16.2
21 | COC(=O)c1ccc(C(Nc2cc(C)ccn2)c2ccc3ccc(C)nc3c2O)cc1 (stereo not shown) [Compound 1008] | 43.18
22 | Cc1ccc2ccc(C(Nc3ccccn3)c3ccccc3Cl)c(O)c2n1 (stereo not shown) [Compound 1111] | 35.20
23 | CCN(CC)Cc1ccc(O)c2ncccc12 [Compound 1096] | 48.25

Row | Structure (SMILES) | Average Number of hTERT Transcripts
24 | CC(C)C(=O)NC(c1ccc(Cl)cc1Cl)c1ccc2cccnc2c1O (stereo not shown) [Compound 1042] | 10.53
25 | O=C(COc1ccccc1)NC(/C=C/c1ccccc1)c1cc(Cl)c2cccnc2c1O (stereo not shown) [Compound 1015] | 63.93
26 | CC(C)OCc1cc(CN2CCCCC2)c(O)c2ncccc12 [Compound 1102] | 351.44
27 | CCN1CCN(Cc2ccc3cccnc3c2O)CC1 [Compound 1089] | 38.29
28 | COCc1cc(CN2CCCCC2)c(O)c2ncccc12 [Compound 1098] | 102.7
29 | CC(=O)NC(c1cccs1)c1ccc2cccnc2c1O (stereo not shown) [Compound 1058] | 47.99
30 | CC(C)C(=O)NC(c1ccc(C(C)C)cc1)c1cc(Cl)c2cccnc2c1O (stereo not shown) [Compound 1062] | 47.98
31 | CCCC(=O)NC(c1ccc(O)c(OCC)c1)c1cc([N+](=O)[O-])c2cccnc2c1O (stereo not shown) [Compound 1036] | 65
32 | CCC(=O)NC(c1ccccc1Cl)c1cc(Cl)c2cccnc2c1O (stereo not shown) [Compound 1041] | 20.78
33 | Oc1c(C(Nc2ccccn2)c2c(Cl)cccc2Cl)ccc2cccnc12 (stereo not shown) [Compound 1009] | 50.29
34 | CCC(=O)NC(c1ccc(N(C)C)cc1)c1ccc2cccnc2c1O (stereo not shown) [Compound 1001] | 12.47
35 | CCOc1cc(C(NC(C)=O)c2cc([N+](=O)[O-])c3cccnc3c2O)ccc1O (stereo not shown) [Compound 1033] | 28.91
36 | CCOCc1cc(CN2CCCCC2)c(O)c2ncccc12 [Compound 1099] | 67.59
37 | COc1cccc(C(=O)NC(c2ccc(OC)c(OC)c2)c2cc(Cl)c3cccnc3c2O)c1 (stereo not shown) [Compound 1013] | 40.42
38 | Oc1c(C(Nc2ccccn2)c2ccc(OC3CCCC3)cc2)ccc2cccnc12 (stereo not shown) [Compound 1004] | 12.11
39 | Cc1ccc2c(I)cc(I)c(O)c2n1 [Compound 1105] | 51.56
40 | Oc1c(C(Nc2ccccn2)c2ccc(Cl)c(Cl)c2)ccc2cccnc12 (stereo not shown) [Compound 1082] | 7.54
41 | CCC(=O)NC(c1ccccc1Cl)c1cc([N+](=O)[O-])c2cccnc2c1O (stereo not shown) [Compound 1074] | 49.89
42 | CCC(=O)NC(c1ccccc1OC)c1cc(Cl)c2cccnc2c1O (stereo not shown) [Compound 1043] | 15.13
43 | CN1CCN(Cc2cc(COCc3ccccc3)c3cccnc3c2O)CC1 [Compound 1003] | 10.05
44 | CC(=O)NC(c1ccccc1)c1cc([N+](=O)[O-])c2cccnc2c1O (stereo not shown) [Compound 1050] | 47.68
45 | CC1CCN(Cc2cc(COC(C)C)c3cccnc3c2O)CC1 [Compound 1103] | 70.5
46 | COCc1cc(CN2CCCC2)c(O)c2ncccc12 [Compound 1097] | 77.36

Row | Structure (SMILES) | Average Number of hTERT Transcripts
47 | O=C(NC(c1ccccc1)c1ccc2cccnc2c1O)c1ccccc1 (stereo not shown) [Compound 1086] | 48.77
48 | CCCCC(=O)NC(/C=C/c1ccccc1)c1cc([N+](=O)[O-])c2cccnc2c1O (stereo not shown) [Compound 1069] | 101.8
49 | O=C(CCc1ccccc1)NC(c1ccc(Cl)cc1)c1ccc2cccnc2c1O (stereo not shown) [Compound 1109] | 34.36
50 | CCCC(=O)NC(c1ccc(N(CC)CC)cc1)c1cc(Cl)c2cccnc2c1O (stereo not shown) [Compound 1070] | 68.65
51 | CCN(CC)c1ccc(C(NC(=O)C(C)C)c2ccc3cccnc3c2O)cc1 (stereo not shown) [Compound 1060] | 65.91
52 | CC(C)C(=O)NC(c1ccccc1)c1cc([N+](=O)[O-])c2cccnc2c1O (stereo not shown) [Compound 1110] | 35.19
53 | Oc1ccc(CN2CCN(c3cccc(Cl)c3)CC2)c2cccnc12 [Compound 1113] | 29.15
54 | CCCCC(=O)NC(c1ccc(Cl)cc1)c1cc([N+](=O)[O-])c2cccnc2c1O (stereo not shown) [Compound 1054] | 8.59
55 | Cc1ccc(S(=O)(=O)Nc2cc(Cl)c(O)c3ncccc23)cc1 [Compound 1092] | 96.33
56 | CCCCC(=O)NC(c1ccccc1Cl)c1cc([N+](=O)[O-])c2cccnc2c1O (stereo not shown) [Compound 1031] | 44.8
57 | Cc1ccnc(NC(c2cccc(Cl)c2)c2ccc3ccc(C)nc3c2O)c1 (stereo not shown) [Compound 1080] | 26.36
58 | CC(=O)NC(c1ccc(C(C)C)cc1)c1ccc2cccnc2c1O (stereo not shown) [Compound 1030] | 26.47
59 | COc1ccc(C(NC(C)=O)c2ccc3cccnc3c2O)cc1OC (stereo not shown) [Compound 1023] | 160.65
60 | COc1ccc(C(NC(=O)C2CCCCC2)c2cc([N+](=O)[O-])c3cccnc3c2O)cc1OC (stereo not shown) [Compound 1072] | 93.44
61 | CCCCC(=O)NC(c1ccc(OC)cc1)c1cc([N+](=O)[O-])c2cccnc2c1O (stereo not shown) [Compound 1040] | 25.16
62 | CCCCC(=O)NC(c1ccccc1OC)c1cc([N+](=O)[O-])c2cccnc2c1O (stereo not shown) [Compound 1027] | 19.72
63 | CC(C)C(=O)NC(c1ccc(C(C)C)cc1)c1cc([N+](=O)[O-])c2cccnc2c1O (stereo not shown) [Compound 1071] | 70.74
64 | CCC(=O)NC(c1ccc(C)cc1)c1cc([N+](=O)[O-])c2cccnc2c1O (stereo not shown) [Compound 1049] | 49.12
65 | Cc1ccc(C(NC(=O)C2CCCCC2)c2ccc3cccnc3c2O)cc1 (stereo not shown) [Compound 1047] | 43.89
66 | COc1ccc(C(=O)NC(/C=C/c2ccccc2)c2cc(Cl)c3cccnc3c2O)cc1 (stereo not shown) [Compound 1016] | 10.9
67 | Cc1ccc(C(NC(=O)C(C)C)c2ccc3cccnc3c2O)cc1 (stereo not shown) [Compound 1088] | 191.81
